# Legend:
# erythrocytes = experiment: Hemolysis of erythrocytes mediated by peroxyl radicals (AAPH); protection of RBCs against lysis; assay type: cell-based; conditions: for AUC, % of control: relative to the corresponding control without Trolox, CO-ligated
# Description: Blood was collected into heparinized tubes and erythrocytes were separated by centrifugation and washed 3 times with 10 volumes of PBS, pH 7.4. During the last washing, erythrocytes were centrifuged at 1000×g for 10 minutes to obtain a consistently packed cell preparation. The assay for hemolysis mediated by peroxyl radicals was conducted by a modified method of Miki et al.,(M. Miki, H. Tamai, M. Mino, Y. Yamamoto and E. Niki., Arch. Biochem. Biophys. 258:373-380 (1987)). Equal volumes of a 30% suspension of fresh erythrocytes in PBS pH 7.4, test sample, and 300 mM 2,2;-azo-bis(2-amidinopropane dihydrochloride) (AAPH, a radical generator) were combined in order. Mixtures were prepared under CO gas and test hemoglobin concentration in the RBC assay suspension was 12-13 mg/ml. Mixtures were held at 37° C., and aliquots were diluted 20-fold in PBS and centrifuged at 1000×g for 10 minutes. As a measure of Hb released due to RBC lysis, the absorbances of supernatants were measured at 540 nm after conversion of all Hb to CN-metHb according to the method of Tentori (Meth. Enzymology 75:707 (1981)). Supernatant Hb levels were corrected for Hb added in the test samples.
# The results for two products are presented graphically in FIG. 1, a plot of relative RBC lysis against time for the various products. Products analyzed were prepared as described for reaction #6 (Hb-Trolox B) and reaction #7 (Hb-Trolox A) in Table 1 of Example 1. […] Relative protection was also determined by comparison of areas under the curves (AUC) obtained by plotting RBC lysate absorbance versus time. AUC is determined by the time of onset, rate, and overall extend of RBC lysis. Lower AUC values indicate greater protection of RBCs against lysis.
# Using the method described in Example 2, the anti-oxidant activities of the two conjugates were measured. Samples were CO-ligated and concentration of the conjugates and controls in the RBC assay suspension was 12 mg/mL.
# Using the method described in Example 1, the anti-oxidant activity of the polyOR-Hb-TX was measured. Products tested included oxygen and CO-ligated polyOR-Hb (no treatment with TX or EDC), CO-ligated product reserved prior to oxygenation as described above, and oxygenated product. All products were present in the RBC lysis assay suspension at 11.7 mg/mL.
# Using the method described in Example 1, the antioxidant activities of the polyOR-Hb-TX products prepared under deoxy conditions (Example 8) and CO conditions (Example 6) were measured. Samples were CO-ligated and concentration of the conjugates and controls in the RBC assay suspension was 12 mg/mL. An equal concentration of polyOR-Hb, as well as two concentrations of Trolox alone representing 1× and 0.5× its solubility limit in the test solution, were evaluated.
# [1] = P50 measured with a Hemox-Analyzer; conditions: 37° C.
# Description: Trolox was conjugated to polyOR-Hb under deoxy conditions to prepare a product with a high P50, more suitable for use as an HBOC. PolyOR-Hb and MES buffer were deoxygenated by standard means. 0.78 g Trolox was reacted with 0.60 g EDC in 4 mL of acetonitrile for 10-20 minutes at room temperature. This solution was added to 2.04 g polyOR-Hb in 200 mL 120 mM MES pH 7.0. Two identical additions were made after 4 and 21 hours. At 27 hours following the first addition, the reaction mixture was charged with CO gas, filtered, concentrated and dialyzed extensively against PBS.
# conscious rat = experiment: Hemodynamic effect following 10% topload infusion in conscious rat; assay type: in vivo; conditions: for Pre-infusion HR / baseline MAP prior to infusion: conscious Sprague-Dawley rat, before infusion; for baseline MAP prior to infusion: four animals per group; for HR after infusion / MAP following infusion: 10% topload infusion of 7.7 g/dL solution in lactated Ringer's
# Description: Male Sprague-Dawley rats (250-350 g) were anesthetized with isoflurane on the day of the experiment. The right femoral artery and vein were cannulated. After 1.5 hour recovery from surgery, conscious animals residing in a metabolic cages were infused with either of two solutions: oxygenated polyOR-TX prepared in Example 6 or polyOR-Hb (no TX-EDC treatment; both solutions were 7.7 g/dL in lactated Ringer's solution). Infusion volume was equal to 10% of the animal's estimated blood volume. Mean arterial blood pressure (MAP) and heart rate (HR) were recorded 30 minutes prior to infusion to establish baseline values, during infusion and for 2 hours following infusion (FIGS. 3 and 4). Four animals were tested in each of the two groups. The baseline MAP prior to infusion was 101±4 mm Hg (polyOR-Hb) and 110±3 mm Hg (polyOR-Hb-TX). […] Pre-infusion HR were 407±17 and 394±17 beats per minute (bpm) in the polyOR-Hb and polyOR-Hb-TX groups, respectively.
# [2] = Table 8, 11.7 mg/mL in RBC lysis assay suspension
# [3] = Table 7, CO-ligated samples, 12 mg/mL in RBC assay suspension
# [4] = Table 4, hemoglobin 0.20 mM (12-13 mg/ml) in RBC assay suspension, under CO, 37° C., bound Trolox 0.32 mM (A), 0.45 mM (B), lower AUC = greater protection
compound,measurement,setting,value
"PolyOR-Hb (Oxy form): oxygen-ligated polyOR-Hb, no treatment with TX or EDC",AUC relative to AAPH control (%),erythrocytes; [2],39%
3× TX-EDC (Reaction B): polyOR-Hb conjugated with Trolox by three additions of Trolox/EDC,"AUC, % of control",erythrocytes; 12 mg/mL,3%
"3× Control: control product: polyOR-Hb reacted with EDC alone, no Trolox added, three additions",AUC relative to AAPH control (%),erythrocytes; [3],69%
"Cc1c(C)c2c(c(C)c1O)CCC(C)(C(=O)O)O2 (centres unmarked) [Free Trolox, 2,5,7,8-tetramethyl-2-carboxy-chroman-6-ol]",AUC relative to AAPH control (%),"erythrocytes; Table 4, Trolox 0.50 mM, no hemoglobin",88%
same,AUC relative to AAPH control (%),"erythrocytes; Table 9, Trolox alone 0.26 mM (0.5× its solubility limit)",87%
same,AUC relative to AAPH control (%),"erythrocytes; Table 9, Trolox alone 0.52 mM (1× its solubility limit)",70%
"Free Hb (B): free (control) hemoglobin; product of the control reaction corresponding to Hb-Trolox B, no TX-EDC added",AUC relative to AAPH control (%),erythrocytes; [4],35%
"1× Control: control product: polyOR-Hb reacted with EDC alone, no Trolox added, single addition",AUC relative to AAPH control (%),erythrocytes; [3],83%
PolyOR-Hb-TX (from Example 8): Trolox conjugated to polyOR-Hb under deoxy conditions,AUC relative to AAPH control (%),"erythrocytes; Table 9, CO form, 12 mg/mL",3%
same,P50,[1],40 mm Hg
"PolyOR-Hb: o-raffinose cross-linked / polymerized hemoglobin, no treatment with TX or EDC [reference compound]",AUC relative to AAPH control (%),"erythrocytes; Table 9, CO form, 12 mg/mL",28%
same,Pre-infusion HR,conscious rat,407±17 bpm
same,baseline MAP prior to infusion,conscious rat,101±4 mm Hg
same,HR after infusion,conscious rat; conscious rat,345±16 bpm
same,MAP following infusion,conscious rat; conscious rat,142±7 mm Hg
same,P50,[1],41 mm Hg
"PolyOR-Hb (CO form): CO-ligated polyOR-Hb, no treatment with TX or EDC",AUC relative to AAPH control (%),erythrocytes; [2],47%
1× TX-EDC (Reaction A): polyOR-Hb conjugated with Trolox by a single addition of Trolox/EDC,AUC relative to AAPH control (%),erythrocytes; [3],27%
same,"AUC, % of control",erythrocytes; 12 mg/mL,33%
PolyOR-Hb-TX (Oxy form): oxygenated product of Example 6,AUC relative to AAPH control (%),erythrocytes; [2],15%
"PolyOR-Hb-TX (from Example 6): Trolox conjugate of o-raffinose polymerized hemoglobin, large scale, prepared under CO conditions",AUC relative to AAPH control (%),"erythrocytes; Table 9, CO form, 12 mg/mL",0%
same,Pre-infusion HR,conscious rat,394±17 bpm
same,baseline MAP prior to infusion,conscious rat,110±3 mm Hg
same,HR after infusion,conscious rat; conscious rat,316±10 bpm
same,MAP following infusion,conscious rat; conscious rat,151±1 mm Hg
same,Hemodynamic properties compared with polyOR-Hb,"conscious rat; conscious rat, 10% topload infusion, result in words",did not alter the hemodynamic properties
same,P50,[1],16 mm Hg
PolyOR-Hb-TX (CO form): CO-ligated product of Example 6 reserved prior to oxygenation,AUC relative to AAPH control (%),erythrocytes; [2],6%
"Free Hb (A): free (control) hemoglobin; product of the control reaction corresponding to Hb-Trolox A, no TX-EDC added",AUC relative to AAPH control (%),erythrocytes; [4],39%

# Reference: patent US6974794B1, “Hemoglobin-antioxidant conjugates” (Hemosol LP, priority 1999, dated 2005)
